Columns and labels:
HIV infected persons [1] = assay: Clinical trial of niacin (nicotinamide) in HIV infected persons: plasma amino acids by HPLC, tolerability; format: in vivo, human
Description: Four HIV infected persons participated in a trial of niacin in the form of nicotinamide. The participants were at various stages of their HIV infection as judged by their CD4 counts which ranged from 0 to 620 [see table 1]. […] Two of the participants had known co-infections infections typical of HIV infected persons. Each participant took 3 grams of nicotinamide per day for 2 months. […] Each participant's plasma tryptophan was measured prior to treatment and at the end of treatment [see table 3]. […] All amino acid concentrations were measured by High Performance Liquid Chromotography [HPLC].

HIV infected persons [2] = conditions: cited from earlier work

## O=C(O)c1cccnc1 [Niacin]
HIV infected persons [1]; four patients across the range of baseline CD4 count, antiviral medication and co-infections
  tryptophan status (plasma tryptophan), in words: improve tryptophan status in all four patients

## Cc1cn([C@H]2C[C@H](N=[N+]=[N-])[C@@H](CO)O2)c(=O)[nH]c1=O [Zidovudine, zidovudine]
HIV infected persons [2]; HIV infected persons
  effect on plasma tryptophan in HIV infected persons: replete plasma tryptophan
HIV infected persons [2]; in vivo
  side effects: headache, nausea, and bone marrow suppression

## NC(=O)c1cccnc1 [nicotinamide]
HIV infected persons [1]; 3 grams of nicotinamide per day for 2 months, four HIV infected persons
  adverse side effects of treatment: not associated with any adverse side effects
HIV infected persons [1]; 3 grams of nicotinamide per day orally for 2 months, four HIV infected persons, before vs end of treatment, p=0.0112 (paired t-test)
  average increase of plasma tryptophan of all participants: 43.9%
